SMILES strings stand for the structures.

The test system of one data set is XO. To be noted: read-out: IC50, XO inhibition (previous report); cited from earlier work.
In data set [1] the test system is AML12 hepatocytes. Description: Cell viability, WST-8 assay. The class given is cell-based. To be noted: concentrations up to 100 µM, 2 h. On the procedure: The viability of AML12 cells was determined using the WST-8 assay provided in the Cell Counting Kit-8 (Dojindo Laboratories, Kumamoto, Japan). Cells were initially seeded at 5 × 10^3 cells per well in 96-well plates and maintained in DMEM/F-12 medium containing 10% (v/v) FBS for 72 h. To induce serum deprivation, the medium was replaced with serum-free DMEM/F-12, and cells were incubated for an additional 24 h. […] The treatment lasted for 2 h. Subsequently, cells were washed again with BSS and incubated with the WST-8 reagent for 1 h. Absorbance was measured at 490 nm using a microplate reader (MTP-310Lab; CORONA […] Co., Ltd., […], Japan). Cell viability was normalized to the DMSO control (0 μM), which was set at 100%.
(Formazan colour is commonly taken as a measure of viable cells.)

Data set [2] deals with AML12 hepatocytes. The data set is described as follows: UA production by AML12 cells stimulated with UA precursors. Format: cell-based. Particulars: for maximum reduction of UA production: guanosine + inosine (GI mixture) 100 µM each, vs control (0 µM); for UA production: UA precursor xanthine. On the procedure:
AML12 hepatocytes used in this study were acquired from ATCC (CRL-2254), Manassas, VA, USA. AML12 cells were maintained in DMEM/F-12 (Life Technologies, Grand Island, NY, USA) supplemented with 10% (v/v) fetal bovine serum (FBS; Hyclone, Logan, UT, USA), recombinant human insulin (5 µg/mL), human transferrin (5 µg/mL), and dexamethasone (40 ng/mL), each obtained from FUJIFILM Wako, as well as selenium (3 ng/mL, Sigma-Aldrich) and penicillin–streptomycin mixed solution (100 U/mL penicillin and 100 µg/mL streptomycin, Nacalai Tesque), under a humidified atmosphere of 5% CO2 at 37 °C. Culture of AML12 hepatocytes and measurement of UA production were conducted following a previously reported protocol.Cells were seeded at a density of 1.0 × 10^5 cells per well in 24-well plates and cultured for 72 h in complete medium, followed by 24 h in serum-free DMEM/F-12. After serum deprivation, cells were rinsed once with calcium- and magnesium-free phosphate-buffered saline [PBS (–)] and incubated in 200 µL of balanced salt solution (BSS) containing […], 5 mM KCl, 1 mM MgCl2, 0.8 mM CaCl2, 25 mM NaHCO3, 1 mM NaH2PO4, 10 mM HEPES, and 5 mM glucose. […] The final concentration of DMSO in all samples was adjusted to 0.15%. After a 2-h incubation, 200 µL of the reaction mixture was collected for UA quantification. The UA concentration in BSS was used as an indicator of UA production. Subsequently, cells were washed with PBS (–) and lysed in 300 µL of buffer containing 50 mM Tris and 1 mM sodium phosphate (pH 7.5). Lysates were sonicated and centrifuged (12,000× g, 5 min, 4 °C), and the supernatants were used for protein quantification using the Pierce™ BCA Protein Assay Kit (Thermo Fisher Scientific Inc., Waltham, MA, USA). UA levels were measured using the uricase-based Uric Acid C-Test Wako (FUJIFILM Wako). UA production was expressed as nanomoles per 2 h per milligram of cellular protein (nmol/2 h/mg protein).

For data set [3], the target named is xanthine oxidase (bovine milk-derived) (Bos taurus, UniProt P80457). Description: XO inhibition assay in vitro (UV absorbance at 295 nm). To be noted: xanthine substrate, 37 °C, mean of three independent experiments, read-out: IC50, direct XO inhibitory activity. Format: biochemical.
Chain of xanthine oxidase (bovine milk-derived) (P80457 whole entry): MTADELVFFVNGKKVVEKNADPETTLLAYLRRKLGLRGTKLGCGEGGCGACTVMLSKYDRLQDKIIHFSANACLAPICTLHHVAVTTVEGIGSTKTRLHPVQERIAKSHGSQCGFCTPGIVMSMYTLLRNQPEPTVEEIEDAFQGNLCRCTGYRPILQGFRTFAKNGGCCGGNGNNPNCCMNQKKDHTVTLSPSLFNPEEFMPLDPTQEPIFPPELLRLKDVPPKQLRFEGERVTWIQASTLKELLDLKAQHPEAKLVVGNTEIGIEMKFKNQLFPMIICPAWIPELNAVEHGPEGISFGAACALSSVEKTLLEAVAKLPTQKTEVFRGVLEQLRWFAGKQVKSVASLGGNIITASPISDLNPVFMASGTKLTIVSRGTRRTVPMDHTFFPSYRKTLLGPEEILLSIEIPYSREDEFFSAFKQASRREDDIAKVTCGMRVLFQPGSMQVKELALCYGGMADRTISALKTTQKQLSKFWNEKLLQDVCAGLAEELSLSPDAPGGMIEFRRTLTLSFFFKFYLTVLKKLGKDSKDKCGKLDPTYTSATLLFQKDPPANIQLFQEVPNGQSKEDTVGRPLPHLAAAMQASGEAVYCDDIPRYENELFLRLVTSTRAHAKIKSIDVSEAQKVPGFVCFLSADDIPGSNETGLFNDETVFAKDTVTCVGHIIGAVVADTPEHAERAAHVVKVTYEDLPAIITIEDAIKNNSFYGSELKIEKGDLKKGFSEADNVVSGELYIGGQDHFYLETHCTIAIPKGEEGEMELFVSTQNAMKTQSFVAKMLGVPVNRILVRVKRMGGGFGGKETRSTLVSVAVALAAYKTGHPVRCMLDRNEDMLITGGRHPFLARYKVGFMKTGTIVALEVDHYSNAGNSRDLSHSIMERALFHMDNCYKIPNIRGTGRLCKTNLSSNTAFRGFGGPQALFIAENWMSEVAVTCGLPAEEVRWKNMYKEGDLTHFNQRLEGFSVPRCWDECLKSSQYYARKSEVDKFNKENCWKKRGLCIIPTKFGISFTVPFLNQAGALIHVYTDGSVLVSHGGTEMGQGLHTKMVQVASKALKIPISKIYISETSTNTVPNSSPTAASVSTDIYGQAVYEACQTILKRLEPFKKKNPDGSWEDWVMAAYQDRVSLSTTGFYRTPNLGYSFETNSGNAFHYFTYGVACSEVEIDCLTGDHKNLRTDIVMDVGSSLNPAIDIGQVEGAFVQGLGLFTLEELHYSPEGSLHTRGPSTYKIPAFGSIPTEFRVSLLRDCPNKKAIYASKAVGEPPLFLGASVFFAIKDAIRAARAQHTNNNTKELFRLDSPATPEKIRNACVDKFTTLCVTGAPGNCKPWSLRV
Protocol: Prior to the assay, the compounds were freshly dissolved in a mixture of 30% dimethyl sulfoxide (DMSO; FUJIFILM Wako) and 70% phosphate buffer (100 mM, pH 7.5) to prepare test solutions at final concentrations ranging from 0 to 100 µM. In each well of a 96-well microplate, 50 µL of the test solution was mixed with 60 µL of buffer and 30 µL of xanthine oxidase (7.8 mU/mL, bovine milk-derived; Sigma-Aldrich). After preincubation at 37 °C for 10 min, the reaction was initiated by adding 60 µL of xanthine substrate (150 µM; FUJIFILM Wako). Absorbance at 295 nm was monitored for 30 min at 37 °C using a Spark 10 M microplate reader (Tecan Group Ltd., Männedorf, Switzerland). XO inhibitory activity was expressed as percentage inhibition, calculated using the formula Inhibition (%) = 100 × [1 − (B/A)], where A and B represent the absorbance increase in the absence and presence of the test compound, respectively. All measurements were performed in triplicate.
All experimental data are presented as mean ± SEM. […] Data from the in vitro XO inhibition assay are shown as mean values from three independent experiments. IC50 values were calculated by nonlinear regression analysis using dose–response curves generated from at least six concentrations of each compound. All statistical analyses were performed using GraphPad Prism version 10 (GraphPad Software, San Diego, CA, USA).

Regarding `O=c1c(O[C@@H]2O[C@H](CO)[C@@H](O)[C@H](O)[C@H]2O)c(-c2ccc(O)cc2)oc2cc(O)cc(O)c12` [Astragalin, kaempferol-3-O-glucoside], the half-maximal inhibitory concentration (IC50) in the data set with XO is 49.5 µM; in data set [3] it was 43 µM. Further, the “cytotoxic effects (cell viability)” value in the data set on AML12 hepatocytes [1] is “did not exhibit any cytotoxic effects”. For the same molecule, in the data set on AML12 hepatocytes [2] (100 µM, 2 h), the “maximum reduction of UA production” value is given as “approximately 13.3%”.

As for `O=c1c(O)c(-c2ccc(O)cc2)oc2cc(O)cc(O)c12` [Kaempferol, kaempferol], the “cytotoxic effects (cell viability)” value in the data set with AML12 hepatocytes [1] is “did not exhibit any cytotoxic effects”. Also, the UA production worked out at 236.0 ± 7.2 nmol/2 h/mg protein in the data set with AML12 hepatocytes [2] (10 µM), 101.1 ± 2.8 nmol/2 h/mg protein in the data set with AML12 hepatocytes [2] (30 µM) and 31.4 ± 0.5 nmol/2 h/mg protein in the data set on AML12 hepatocytes [2] (100 µM). In the data set on AML12 hepatocytes [2] (100 µM, 2 h), the “maximum reduction of UA production” value is approximately 97.2%.

`O=C(O)/C=C/c1ccc(O)cc1` [p-Coumaric acid, p-coumaric acid]: in the data set on AML12 hepatocytes [1], the “cytotoxic effects (cell viability)” value is “did not exhibit any cytotoxic effects”. Moreover, the “effect on UA production” value in the data set with AML12 hepatocytes [2] (concentrations up to 100 µM, GI mixture, 2 h) is “remained unaffected”. The IC50 in data set [3] is more than 100 µM.

The IC50 is the concentration that inhibits the measured activity by half.
